Assay results as given in US11938139B2, “Pharmaceutical compositions and methods for anxiety, depression and other psychiatric disorders” (LA PharmaTech Inc., priority 2019, dated 2024).

How the values were obtained:
Type in all cases: in vivo, human
[1] = tested on: patient with generalized anxiety disorder, panic disorder, and agitation; test: Clinical case, Example 1: patient; conditions: person; fluoxetine alone 4 months, sertraline alone 6 months, alprazolam 2.0 mg/daily alone 4 months
Excerpt: A patient had generalized anxiety disorder, panic disorder, and agitation. […] Because azelastine is approved for the treatment of allergic rhinitis and asthma and has never been used to treat patients with depression or anxiety, this dramatic clinical outcome from this composition is unexpected. […] This way of activating the GABA system may interact more effectively with other neurotransmitter systems, including noradrenergic, serotonergic, cholinergic, and opioidergic systems. […] This composition of two mechanisms of action for two different classes of diseases provided a new solution for treating psychiatric diseases which are incurable by other options, such traditional SSRIs, NSRIs, benzodiazepines, and the like alone.

[2] = tested on: patient with generalized anxiety disorder, agitation and insomnia; test: Clinical case, Example 2: patient; conditions: person; disorder for 8 months; alprazolam 2.0 mg/daily alone
Excerpt: (§1) The inventors believe the hypothesis as explained in example 1 above is applicable here as well. In this case, the composition of two mechanisms of action for two different classes of diseases provided a new solution for treating […] generalized anxiety diseases and agitation along with insomnia which could not be treated with other options, such traditional SSRIs, NSRIs, benzodiazepines, and the like alone.

[3] = tested on: patient with major depressive disorder and agitation; test: Clinical case, Example 3: patient; conditions: person; disorder for about 2 years; fluoxetine alone, alprazolam 2.0 mg/daily alone
Excerpt: as §1, with “major depressive disorder” for “generalized anxiety diseases”, “agitation” for “agitation along with insomnia”

| Structure (SMILES) | clinical improvement with single-agent treatment [1] | effectiveness of earlier treatment alone [2] | effectiveness of earlier treatment alone [3] |
| --- | --- | --- | --- |
| Cc1nnc2n1-c1ccc(Cl)cc1C(c1ccccc1)=NC2 [alprazolam, 8-Chloro-1-methyl-6-phenyl-4H-s-triazolo(4,3-a)(1,4)benzodiazepine] | no significant clinical improvement | no treatment had been effective | no treatment, including fluoxetine alone from SSRIs or alprazolam (2.0 mg/daily) alone from benzodiazepines, had been effective |
| CNCCC(Oc1ccc(C(F)(F)F)cc1)c1ccccc1 (stereo not drawn) [fluoxetine] | no significant clinical improvement |  | no treatment, including fluoxetine alone from SSRIs or alprazolam (2.0 mg/daily) alone from benzodiazepines, had been effective |
| CN[C@H]1CC[C@@H](c2ccc(Cl)c(Cl)c2)c2ccccc21 [sertraline] | no significant clinical improvement |  |  |
